Assay results: patent publication US20260008760A1, “DIPEPTIDYL PEPTIDASE 1 INHIBITORS AND USES THEREOF” (Insmed Incorporated, priority 2024, published 2026)

Experiments:
[1] = biological target: DPP1 in HL-60 cells (Homo sapiens, UniProt P53634); assay: DPP1 Cell Single-Point Percent Inhibition Testing; format: cell-based; set-up: host or cells: HL-60 cells; details: final compound concentration 5 nM, n = 1
Procedure, shortened: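 HL-60 cells in unsupplemented RPMI preincubated 60 min at 37 °C with test article (5 nM final, 0.1% DMSO), then given cell-permeable H-Gly-Phe-AFC (100 μM final) for 30 min. Fluorescence at 400/505 nm; percent inhibition versus vehicle after subtracting cell-free background and 10 μM brensocatib non-specific signal.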

[2] = biological target: human DPP1 enzyme (Homo sapiens, UniProt P53634); assay: Human DPP1 Enzyme Single-Point Percent Inhibition Testing (HL-60 lysate); format: biochemical; set-up: A crude lysate of HL-60 cells (ATCC; Manassas, VA) was used as a source of human DPP1 enzyme; host or cells: HL-60 cells (crude lysate); details: final compound concentration of 10 nM, 400 μM H-Gly-Arg-AMC, n = 1
Procedure, shortened: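 Enzyme source was HL-60 cell lysate in MES pH 6.0 buffer with NaCl and DTT, pre-incubated 10 min at 37° C with 10 nM compound (final, 1% DMSO). Cleavage of 400 μM H-Gly-Arg-AMC was followed at 350/450 nm over 90 min at 37° C, and percent inhibition was taken against vehicle wells.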

human DPP1 enzyme, sequence (P53634 25-463): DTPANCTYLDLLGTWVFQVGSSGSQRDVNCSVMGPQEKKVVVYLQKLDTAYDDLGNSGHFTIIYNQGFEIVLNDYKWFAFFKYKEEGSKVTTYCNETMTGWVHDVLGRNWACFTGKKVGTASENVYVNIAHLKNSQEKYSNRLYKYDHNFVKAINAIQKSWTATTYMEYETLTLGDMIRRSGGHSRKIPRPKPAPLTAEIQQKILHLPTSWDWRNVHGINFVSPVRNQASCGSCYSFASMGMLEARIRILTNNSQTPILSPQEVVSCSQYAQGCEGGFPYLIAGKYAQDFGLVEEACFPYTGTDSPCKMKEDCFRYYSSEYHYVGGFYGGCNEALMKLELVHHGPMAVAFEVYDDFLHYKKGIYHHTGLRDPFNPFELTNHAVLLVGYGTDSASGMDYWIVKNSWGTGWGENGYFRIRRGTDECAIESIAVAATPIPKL
DPP1 in HL-60 cells, sequence (P53634 25-463): as above

Compound: C[C@@H]1NC[C@@H](C(=O)N[C@H](C#N)Cc2ccc(-c3ccn4ccnc4c3)cc2)OC[C@@H]1O [Compound H43]
- inhibition at 0.005 µM [1]: ≤ 76.5%
- inhibition at 0.01 µM [2]: ≤ 40%

Compound: Cc1nc(C)c2cc(-c3ccc(C[C@@H](C#N)NC(=O)[C@@H]4CNCCCO4)cc3)cn2c1C [Compound A141]
- inhibition at 0.005 µM [1]: 76.5 to 93.9%
- inhibition at 0.01 µM [2]: ≤ 40%

Compound: CO[C@H]1CCO[C@H](C(=O)N[C@H](C#N)Cc2ccc(-c3ccc(S(=O)(=O)N4CCC4)cc3)cc2F)CNC1 [Compound F30]
- inhibition at 0.005 µM [1]: ≤ 76.5%
- inhibition at 0.01 µM [2]: 40 to 66.7%

Compound: CO[C@@H]1CCNC[C@@H](C(=O)N[C@H](C#N)Cc2ccc(-c3ccc(CN4CCN(C)CC4)cc3)cc2)OC1 [Compound F10]
- inhibition at 0.005 µM [1]: ≤ 76.5%
- inhibition at 0.01 µM [2]: ≥ 66.7%

Compound: CO[C@H]1CCO[C@H](C(=O)N[C@H](C#N)Cc2ccc(-c3cnc4c(n3)CCCC4)cc2F)CNC1 [Compound A97]
- inhibition at 0.005 µM [1]: ≤ 76.5%
- inhibition at 0.01 µM [2]: 40 to 66.7%

Compound: C[C@@H]1NC[C@@H](C(=O)NC(C#N)Cc2cc3c(cc2F)-c2ccc4oc(=O)n(C)c4c2CO3)OC[C@H]1O (some centres unmarked) [Compound C20]
- inhibition at 0.005 µM [1]: ≤ 76.5%
- inhibition at 0.01 µM [2]: ≥ 66.7%

Compound: Cc1cn2cc(-c3ccc(C[C@@H](C#N)NC(=O)[C@@H]4CNCCCO4)c(F)c3)cc2c(C)n1 [Compound A118]
- inhibition at 0.005 µM [1]: ≤ 76.5%
- inhibition at 0.01 µM [2]: ≤ 40%

Compound: C[C@@H]1NC[C@@H](C(=O)N[C@H](C#N)Cc2ccc(-c3ccn4ccnc4c3)cc2)OC[C@H]1O [Compound H42]
- inhibition at 0.005 µM [1]: ≤ 76.5%
- inhibition at 0.01 µM [2]: ≥ 66.7%

Compound: N#C[C@H](Cc1cc2c(cc1F)-c1ccc(F)cc1CO2)NC(=O)[C@@H]1CNCCCCO1 [Compound B30]
- inhibition at 0.005 µM [1]: ≤ 76.5%
- inhibition at 0.01 µM [2]: ≤ 40%

Compound: CO[C@H]1CCO[C@H](C(=O)N[C@H](C#N)Cc2ccc(-c3ccc4c(c3)C3(CC4)CCN(C)CC3)cc2)CNC1 [Compound F18]
- inhibition at 0.005 µM [1]: ≤ 76.5%
- inhibition at 0.01 µM [2]: ≥ 66.7%

Compound: CO[C@@H]1CCNC[C@@H](C(=O)N[C@H](C#N)Cc2ccc(-c3ccc4cnn(C5CCN(C)CC5)c4c3)cc2)OC1 [Compound H3]
- inhibition at 0.005 µM [1]: ≤ 76.5%
- inhibition at 0.01 µM [2]: ≥ 66.7%

Compound: CO[C@H]1CCO[C@H](C(=O)N[C@H](C#N)Cc2ccc(-c3ccc4cnn(C)c4c3)cc2)CNC1 [Compound H17]
- inhibition at 0.005 µM [1]: ≤ 76.5%
- inhibition at 0.01 µM [2]: ≤ 40%

Compound: N#C[C@H](Cc1ccc(-c2cnc3c(n2)CCCC3)cc1F)NC(=O)[C@@H]1CNCCCCO1 [Compound A115]
- inhibition at 0.005 µM [1]: ≤ 76.5%
- inhibition at 0.01 µM [2]: ≤ 40%

Compound: CO[C@@H]1CCNC[C@@H](C(=O)N[C@H](C#N)Cc2ccc(-c3cc4c(C)nc(C)cn4c3)cc2F)OC1 [Compound A82]
- inhibition at 0.005 µM [1]: 76.5 to 93.9%
- inhibition at 0.01 µM [2]: ≥ 66.7%

Compound: CCN1C(=O)Cc2ccc(-c3ccc(C[C@@H](C#N)NC(=O)[C@@H]4CNC[C@@H](OC)CCO4)c(F)c3)cc21 [Compound G6]
- inhibition at 0.005 µM [1]: ≤ 76.5%
- inhibition at 0.01 µM [2]: ≥ 66.7%

Compound: CO[C@H]1CCO[C@H](C(=O)N[C@H](C#N)Cc2ccc(-c3cc4c(C)nc(C)cn4c3)cc2F)CNC1 [Compound A94]
- inhibition at 0.005 µM [1]: ≤ 76.5%
- inhibition at 0.01 µM [2]: ≤ 40%

Compound: N#Cc1ccc2c(c1)-c1cc(F)c(CC(C#N)NC(=O)[C@@H]3CNCCCCO3)cc1OC2 (some centres unmarked) [Compound B29]
- inhibition at 0.005 µM [1]: ≤ 76.5%
- inhibition at 0.01 µM [2]: ≤ 40%

Compound: Cc1ncc(C)n2cc(-c3ccc(C[C@@H](C#N)NC(=O)[C@@H]4CN[C@@H](C)[C@@H](O)CO4)cc3)cc12 [Compound A134]
- inhibition at 0.005 µM [1]: ≤ 76.5%
- inhibition at 0.01 µM [2]: 40 to 66.7%

Compound: C[C@@H]1NC[C@@H](C(=O)N[C@H](C#N)Cc2ccc(-c3ccc4nnn(C)c4c3)cc2)OC[C@H]1O [Compound H24]
- inhibition at 0.005 µM [1]: ≤ 76.5%
- inhibition at 0.01 µM [2]: ≥ 66.7%

Compound: CO[C@@H]1CCNC[C@@H](C(=O)N[C@H](C#N)Cc2ccc(-c3cnc4c(n3)CCCC4)cc2)OC1 [Compound A84]
- inhibition at 0.005 µM [1]: ≤ 76.5%
- inhibition at 0.01 µM [2]: 40 to 66.7%

Compound: CO[C@H]1CCO[C@H](C(=O)NC(C#N)Cc2cc3c(cc2F)-c2ccc4oc(=O)n(C)c4c2CO3)CNC1 (some centres unmarked) [Compound C17]
- inhibition at 0.005 µM [1]: ≤ 76.5%
- inhibition at 0.01 µM [2]: 40 to 66.7%

Compound: CO[C@@H]1CCNC[C@@H](C(=O)N[C@H](C#N)Cc2ccc(-c3ccc4nnn(C)c4c3)cc2F)OC1 [Compound H8]
- inhibition at 0.005 µM [1]: ≤ 76.5%
- inhibition at 0.01 µM [2]: ≥ 66.7%

Compound: CO[C@@H]1CCNC[C@@H](C(=O)N[C@H](C#N)Cc2ccc(-c3cc4c(C)nc(C)c(C)n4c3)cc2)OC1 [Compound A123]
- inhibition at 0.005 µM [1]: ≥ 93.9%
- inhibition at 0.01 µM [2]: ≥ 66.7%

Compound: C[C@@H]1NC[C@@H](C(=O)N[C@H](C#N)Cc2ccc(-c3ccc4nnn(C)c4c3)cc2F)OC[C@@H]1O [Compound H32]
- inhibition at 0.005 µM [1]: ≤ 76.5%
- inhibition at 0.01 µM [2]: 40 to 66.7%

Compound: Cc1nc(C)c2cc(-c3ccc(C[C@@H](C#N)NC(=O)[C@@H]4CN[C@@H](C)[C@H](O)CO4)cc3)cn2c1C [Compound A132]
- inhibition at 0.005 µM [1]: 76.5 to 93.9%
- inhibition at 0.01 µM [2]: ≥ 66.7%

Compound: COC1CNC[C@@H](C(=O)NC(C#N)Cc2cc3c(cc2F)-c2cc4c(cc2CO3)oc(=O)n4C)OC1 (some centres unmarked) [Compound C14]
- inhibition at 0.005 µM [1]: ≤ 76.5%
- inhibition at 0.01 µM [2]: ≥ 66.7%

Compound: CO[C@@H]1CCNC[C@@H](C(=O)N[C@H](C#N)Cc2ccc(-c3cc4c(C)ncc(C)n4c3)cc2)OC1 [Compound A122]
- inhibition at 0.005 µM [1]: 76.5 to 93.9%
- inhibition at 0.01 µM [2]: ≥ 66.7%

Compound: Cc1ncc(C)n2cc(-c3ccc(C[C@@H](C#N)NC(=O)[C@@H]4CN[C@@H](C)[C@H](O)CO4)cc3)cc12 [Compound A131]
- inhibition at 0.005 µM [1]: ≤ 76.5%
- inhibition at 0.01 µM [2]: ≥ 66.7%

Compound: Cn1ncc2ccc(-c3ccc(C[C@@H](C#N)NC(=O)[C@@H]4CNCCCCO4)c(F)c3)cc21 [Compound H37]
- inhibition at 0.005 µM [1]: ≤ 76.5%
- inhibition at 0.01 µM [2]: 40 to 66.7%

Compound: Cn1c(=O)oc2cc3c(cc21)-c1cc(F)c(CC(C#N)NC(=O)[C@@H]2CNCCCO2)cc1OC3 (some centres unmarked) [Compound C28]
- inhibition at 0.005 µM [1]: 76.5 to 93.9%
- inhibition at 0.01 µM [2]: ≥ 66.7%

Compound: CO[C@H]1CCO[C@H](C(=O)N[C@H](C#N)Cc2ccc(-c3ccc4c(c3)C3(CCN(C5COC5)CC3)OC4)cc2)CNC1 [Compound F22]
- inhibition at 0.005 µM [1]: ≤ 76.5%
- inhibition at 0.01 µM [2]: 40 to 66.7%

Compound: CO[C@H]1CCO[C@H](C(=O)N[C@H](C#N)Cc2ccc(-c3ccc4cnn(C5CCN(C)CC5)c4c3)cc2)CNC1 [Compound H15]
- inhibition at 0.005 µM [1]: ≤ 76.5%
- inhibition at 0.01 µM [2]: 40 to 66.7%

Compound: CO[C@@H]1CCNC[C@@H](C(=O)N[C@H](C#N)Cc2ccc(-c3ccn4ccnc4c3)cc2)OC1 [Compound H39]
- inhibition at 0.005 µM [1]: ≤ 76.5%
- inhibition at 0.01 µM [2]: 40 to 66.7%

Compound: COC1CNC[C@@H](C(=O)N[C@H](C#N)Cc2ccc(-c3ccc4cnn(C)c4c3)cc2F)OC1 (some centres unmarked) [Compound H13]
- inhibition at 0.005 µM [1]: 76.5 to 93.9%
- inhibition at 0.01 µM [2]: ≥ 66.7%

Compound: N#C[C@H](Cc1ccc(-c2ccn3cnnc3c2)cc1)NC(=O)[C@@H]1CNCCCCO1 [Compound H44]
- inhibition at 0.005 µM [1]: ≤ 76.5%
- inhibition at 0.01 µM [2]: ≤ 40%

Compound: COC1CNC[C@@H](C(=O)N[C@H](C#N)Cc2ccc(-c3ccc4cnn(C)c4c3)cc2)OC1 (some centres unmarked) [Compound H11]
- inhibition at 0.005 µM [1]: 76.5 to 93.9%
- inhibition at 0.01 µM [2]: ≥ 66.7%

Compound: CO[C@H]1CCO[C@H](C(=O)N[C@H](C#N)Cc2ccc(-c3ccc4c(n3)CCCN4)cc2F)CNC1 [Compound A95]
- inhibition at 0.005 µM [1]: ≤ 76.5%
- inhibition at 0.01 µM [2]: 40 to 66.7%

Compound: COC1CNC[C@@H](C(=O)N[C@H](C#N)Cc2ccc(-c3cc4c(C)nc(C)cn4c3)cc2)OC1 (some centres unmarked) [Compound A86]
- inhibition at 0.005 µM [1]: ≤ 76.5%
- inhibition at 0.01 µM [2]: 40 to 66.7%

Compound: COC1CNC[C@@H](C(=O)N[C@H](C#N)Cc2ccc(-c3ccc4c(n3)CCCN4)cc2)OC1 (some centres unmarked) [Compound A87]
- inhibition at 0.005 µM [1]: 76.5 to 93.9%
- inhibition at 0.01 µM [2]: ≥ 66.7%

Compound: N#Cc1ccc2c(c1)COc1cc(C[C@@H](C#N)NC(=O)[C@@H]3CNCCCCO3)c(F)cc1-2 [Compound B28]
- inhibition at 0.005 µM [1]: ≤ 76.5%
- inhibition at 0.01 µM [2]: 40 to 66.7%

Compound: C[C@@H]1NC[C@@H](C(=O)NC(C#N)Cc2cc3c(cc2F)-c2cc4c(cc2CO3)oc(=O)n4C)OC[C@@H]1O (some centres unmarked) [Compound C22]
- inhibition at 0.005 µM [1]: ≤ 76.5%
- inhibition at 0.01 µM [2]: ≥ 66.7%

Compound: CO[C@H]1CCO[C@H](C(=O)N[C@H](C#N)Cc2ccc(-c3ccc4c(c3)C3(CCN(C)C3)OC4=O)cc2)CNC1 (some centres unmarked) [Compound F21]
- inhibition at 0.005 µM [1]: ≤ 76.5%
- inhibition at 0.01 µM [2]: 40 to 66.7%

Compound: CCN1C(=O)Cc2ccc(-c3ccc(C[C@@H](C#N)NC(=O)[C@@H]4CN[C@@H](C)[C@H](O)CO4)c(F)c3)cc21 [Compound G8]
- inhibition at 0.005 µM [1]: ≤ 76.5%
- inhibition at 0.01 µM [2]: ≥ 66.7%
